pEC50, pKi: −log10 of the molar value.
What was measured:
[1] = molecular target: T1, cloned human δ opioid receptors (Homo sapiens, UniProt P41143); experiment: [3H]diprenorphine receptor binding, δ opioid receptor; conditions: inhibition of [3H]diprenorphine binding; Cheng-Prusoff correction; read-out: affinity (expressed as Ki value), δ opioid receptor
T1 construct: expressed in transfected cells; host or cells: CHO cells
Protocol: (§1) The potencies of the final compounds found in Examples 1A-9D were determined by testing the ability of a range of concentrations of each compound to inhibit the binding of the non-selective opioid antagonist, [^3H]diprenorphine, to the cloned human μ, ? and δ opioid receptors, expressed in separate cell lines. IC50 values were obtained by nonlinear analysis of the data using GraphPad Prism version 3.00 for Windows (GraphPad Software, San Diego). Ki values were obtained by Cheng-Prusoff corrections of IC50 values.
(§2) The receptor binding method (DeHaven and DeHaven-Hudkins, 1998) was a modification of the method of Raynor et al. (1994). […] The filters were rinsed 4 times with 1 mL of cold 50 mM Tris HCl, pH 7.8 and radioactivity remaining on the filters determined by scintillation spectroscopy. Nonspecific binding was determined by the minimum values of the titration curves and was confirmed by separate assay wells containing 10 μM naloxone. Ki values were determined by Cheng-Prusoff corrections of IC50 values derived from nonlinear regression fits of 12 point titration curves using GraphPad Prism® version 3.00 for Windows (GraphPad Software, San Diego, Calif.).
(§3) To determine the equilibrium dissociation constant for the inhibitors (Ki), radioligand bound (cpm) in the presence of various concentrations of test compounds was measured. […]

[2] = molecular target: T2, cloned human μ opioid receptors (Homo sapiens, UniProt P35372); experiment: [3H]diprenorphine receptor binding, μ opioid receptor; conditions: inhibition of [3H]diprenorphine binding; Cheng-Prusoff correction; read-out: affinity (expressed as Ki value), μ opioid receptor
T2 construct: expressed in transfected cells; host or cells: CHO cells
Protocol: as §1, §2, §3

[3] = molecular target: T3, cloned human κ opioid receptors (Homo sapiens, UniProt P41145); experiment: [3H]diprenorphine receptor binding, κ opioid receptor; conditions: inhibition of [3H]diprenorphine binding; Cheng-Prusoff correction; read-out: affinity (expressed as Ki value), κ opioid receptor
T3 construct: expressed in transfected cells; host or cells: CHO cells
Protocol: as §1, §2, §3

[4] = molecular target: T1, cloned human δ opioid receptors; experiment: Receptor-mediated [35S]GTPγS binding, δ opioid receptor; format: biochemical; conditions: stimulation of [35S]GTPγS binding to membranes containing cloned human δ opioid receptors; read-out: in vitro δ agonist activity EC50
Protocol: The potency and efficacy of compounds at each of the receptors are assessed by modifications of the methods of Selley, et al., 1997 and Traynor and Nahorski, 1995 using receptor-mediated [S]GTPγS binding in the same membrane preparations used to measure receptor binding. Assays are carried out in 96-well FlashPlates® (Perkin Elmer Life Sciences, Inc, Boston, Mass.). Membranes prepared from CHO cells expressing the appropriate receptor (50-100 μg of protein) are added to assay mixtures containing agonist with or without antagonists, 100 pM [^35S]GTPγS (approx. 100,000 dpm), 3.0 μM GDP, 75 mM NaCl, 15 mM MgCl2, 1.0 mM ethylene glycol-bis(β-aminoethyl ether)-N,N,N′,N′-tetracetic acid, 1.1 mM dithiothreitol, 10 μg/mL leupeptin, 10 μg/mL pepstatin A, 200 μg/mL bacitracin, and 0.5 μg/mL aprotinin in 50 mM Tris-HCl buffer, pH 7.8. After incubation at room temperature for one hour, the plates are sealed, centrifuged at 800×g in a swinging bucket rotor for 5 minutes and bound radioactivity determined with a TopCount microplate scintillation counter (Packard Instrument Co., Meriden, Conn.).
EC50 values for agonists are determined from nonlinear regression fits of 8- or 12-point titration curves to the 4-parameter equation for a sigmoidal dose-response with a slope factor of 1.0 using GraphPad Prism® version 3.00 for Windows (GraphPad Software, San Diego, Calif.).

T1 sequence (P41143 whole entry): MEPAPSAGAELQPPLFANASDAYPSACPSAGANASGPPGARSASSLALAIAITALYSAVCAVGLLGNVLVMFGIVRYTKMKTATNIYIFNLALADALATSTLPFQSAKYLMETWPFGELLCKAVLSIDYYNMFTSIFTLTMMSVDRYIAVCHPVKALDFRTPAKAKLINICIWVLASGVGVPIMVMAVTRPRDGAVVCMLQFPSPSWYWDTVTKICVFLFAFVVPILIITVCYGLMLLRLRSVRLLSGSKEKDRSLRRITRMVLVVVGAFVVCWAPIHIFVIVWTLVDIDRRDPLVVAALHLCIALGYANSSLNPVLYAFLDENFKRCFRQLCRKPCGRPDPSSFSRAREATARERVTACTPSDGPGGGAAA
T2 sequence (P35372 whole entry): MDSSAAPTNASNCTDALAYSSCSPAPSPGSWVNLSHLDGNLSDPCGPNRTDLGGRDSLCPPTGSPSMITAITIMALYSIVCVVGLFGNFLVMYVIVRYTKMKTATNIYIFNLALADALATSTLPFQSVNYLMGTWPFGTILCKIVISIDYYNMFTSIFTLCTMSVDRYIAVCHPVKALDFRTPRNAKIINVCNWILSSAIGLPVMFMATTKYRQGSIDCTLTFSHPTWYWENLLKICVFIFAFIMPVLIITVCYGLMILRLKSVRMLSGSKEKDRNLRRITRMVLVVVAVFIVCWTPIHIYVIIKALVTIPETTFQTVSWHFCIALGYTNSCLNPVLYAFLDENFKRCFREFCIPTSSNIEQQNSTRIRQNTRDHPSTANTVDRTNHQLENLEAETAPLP
T3 sequence (P41145 whole entry): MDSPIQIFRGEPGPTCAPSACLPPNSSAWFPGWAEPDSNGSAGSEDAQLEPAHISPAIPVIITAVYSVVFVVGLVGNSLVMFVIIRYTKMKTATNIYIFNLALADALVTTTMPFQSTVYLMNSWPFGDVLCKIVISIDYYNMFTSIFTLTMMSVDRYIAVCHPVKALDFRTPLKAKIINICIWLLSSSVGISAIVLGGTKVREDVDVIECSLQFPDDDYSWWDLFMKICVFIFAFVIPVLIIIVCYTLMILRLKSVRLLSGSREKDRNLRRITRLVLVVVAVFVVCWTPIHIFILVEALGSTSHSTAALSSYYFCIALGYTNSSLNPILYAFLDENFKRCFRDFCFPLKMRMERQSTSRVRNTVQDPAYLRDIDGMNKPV

CCNC(=O)c1ccc2c(c1)C(CCCCC(=O)N(CC)CC)CC1(CCNCC1)C2 (stereo not shown) [Example 9D, 4-[(4-N,N-diethylaminocarbonyl)butyl]-spiro[6-N-ethylcarbonyl-1,2,3,4-tetrahydronaphthalene-2,4′-piperidine]]
pKi [1]: 9.33
pKi [2]: 6.20
pKi [3]: 6.16
pEC50 [4]: 8.09
